Read-outs that look alike come from different tables or passages of the source. Some results are limits rather than exact numbers.

Here are results for one compound from article PMC4579270, “Identification and Characterization of an Irreversible Inhibitor of CDK2” (Chemistry & Biology, 2015).

What all share (test): Dundee kinase screen re-test (standard format and 4 hour pre-incubation)
Format in all cases: biochemical

One assay concerns the target VEG-FR1 (Homo sapiens, UniProt P17948). The following applies: VEG-FR1, 0.5µM. As for the experimental part: (§1) Prior to determining its cellular activity, we carried out a screen to assess its selectivity against a panel of 131 protein kinases under conditions that would not distinguish between a reversible or irreversible mode of action. […] These 13 kinases and 29 additional kinases, selected for their known sensitivity to other inhibitors within the purine series, were then tested in a modified screening format in which the assay was repeated following a 4-hr pre-incubation (Table S3B). […] However, conformational flexibility around the active site may promote such an interaction with a residue from another part of the structure ([Martin et al., 2012]).
(§2) Table S3, Related to Figure 4. NCL-0006300 protein kinase selectivity. (A) NU6300 was tested at a single concentration of 1µM against 131 protein kinases present in a Dundee protein kinase screen (Bain et al., 2007). Values given are % activity remaining and are the average of duplicate measurements: 0-25% (red), 26-50% (yellow), 51-80% (black) and above 81% (green). The kinase domain sequences (as defined by UniProt) of […]
(§3) have a lysine residue at a position close to CDK2 Lys88 or Lys89. However, in the structure of tyrosine-protein kinase BTK (PDB ID: 3GEN) the residue equivalent to CDK2 Asp86 is Cys481 and therefore there is the potential for a covalent adduct to be formed through this side chain. Ephrin type-B receptor 3 (UniProt entry P54753) also encodes a cysteine residue (Cys717) that by sequence alignment would be predicted to be close to the CDK2 lysine pair. (B) Selected kinases were re-tested in the Dundee kinase screen against NU6300 at a single concentration of 0.5 µM both in the standard assay format and following a 4 hour pre-incubation in the presence of NU6300. Kinases which have very low activity after the 4 hour incubation so that results might not be wholly reliable are boxed in salmon. Kinases where the activity after a 4 hour pre-incubation is < 50% that in the standard assay format are highlighted in red.

A further assay deals with MARK1 (Homo sapiens, UniProt Q9P0L2). The following applies: MARK1, 0.5µM. The procedure:
as §1, §2, §3

A further assay deals with Aurora B (Homo sapiens, UniProt Q96GD4). As for the experimental part:
as §1, §2, §3

A further assay deals with IRAK1 (Homo sapiens, UniProt P51617). The conditions noted are these: IRAK1, 0.5µM. The procedure:
as §1, §2, §3

The target in a further assay is T1, NUAK1 (Homo sapiens, UniProt O60285).
T1 sequence (O60285 1-661): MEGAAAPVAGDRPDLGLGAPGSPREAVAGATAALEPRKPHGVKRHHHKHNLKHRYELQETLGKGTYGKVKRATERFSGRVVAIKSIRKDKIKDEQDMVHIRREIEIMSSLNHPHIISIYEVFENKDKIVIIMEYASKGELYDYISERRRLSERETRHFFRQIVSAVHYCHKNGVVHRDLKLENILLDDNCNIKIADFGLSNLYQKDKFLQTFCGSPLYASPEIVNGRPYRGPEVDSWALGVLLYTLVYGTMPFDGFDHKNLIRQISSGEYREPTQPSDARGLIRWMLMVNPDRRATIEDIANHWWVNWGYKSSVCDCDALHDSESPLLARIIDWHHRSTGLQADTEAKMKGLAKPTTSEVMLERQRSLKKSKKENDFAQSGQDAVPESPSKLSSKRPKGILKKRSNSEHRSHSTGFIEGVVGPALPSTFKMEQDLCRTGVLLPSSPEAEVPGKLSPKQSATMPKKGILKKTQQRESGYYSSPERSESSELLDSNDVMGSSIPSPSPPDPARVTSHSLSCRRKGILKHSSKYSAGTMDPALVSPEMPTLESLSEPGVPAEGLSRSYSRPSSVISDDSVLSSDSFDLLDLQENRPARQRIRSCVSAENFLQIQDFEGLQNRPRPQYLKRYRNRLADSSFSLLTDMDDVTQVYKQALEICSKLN
The following applies: NUAK1, 0.5µM. The procedure:
as §1, §2, §3

Another assay concerns the target CHK2 (Homo sapiens, UniProt O96017). The conditions noted are these: CHK2, 0.5µM. As for the experimental part: as §1, §2, §3
The next assay has as its target PAK5 (Homo sapiens, UniProt Q9P286). The following applies: PAK5, 0.5µM. The procedure:
as §1, §2, §3

Another assay has as its target T2, Aurora A (Homo sapiens, UniProt O14965).
T2 sequence (O14965 1-403): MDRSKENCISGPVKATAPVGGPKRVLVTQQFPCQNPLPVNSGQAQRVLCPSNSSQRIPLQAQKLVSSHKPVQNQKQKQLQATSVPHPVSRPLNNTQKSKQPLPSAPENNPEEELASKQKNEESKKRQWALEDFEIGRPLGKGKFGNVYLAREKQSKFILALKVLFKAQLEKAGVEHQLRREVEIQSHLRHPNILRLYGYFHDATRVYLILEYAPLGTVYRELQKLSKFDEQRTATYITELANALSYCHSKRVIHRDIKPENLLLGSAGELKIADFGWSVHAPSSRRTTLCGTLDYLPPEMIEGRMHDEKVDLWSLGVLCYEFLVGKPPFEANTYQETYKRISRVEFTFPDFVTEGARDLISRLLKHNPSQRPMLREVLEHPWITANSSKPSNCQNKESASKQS
As for the experimental part: as §1, §2, §3

[1] abbreviates: 4hr RT preincubation, read-out: %Remaining activity at 0.5µM NU6300 - 4hr RT preincubation.
Setting [2] is: usual format, read-out: %Remaining activity at 0.5µM NU6300 - Usual assay format.

IRAK1, sequence (P51617 whole entry): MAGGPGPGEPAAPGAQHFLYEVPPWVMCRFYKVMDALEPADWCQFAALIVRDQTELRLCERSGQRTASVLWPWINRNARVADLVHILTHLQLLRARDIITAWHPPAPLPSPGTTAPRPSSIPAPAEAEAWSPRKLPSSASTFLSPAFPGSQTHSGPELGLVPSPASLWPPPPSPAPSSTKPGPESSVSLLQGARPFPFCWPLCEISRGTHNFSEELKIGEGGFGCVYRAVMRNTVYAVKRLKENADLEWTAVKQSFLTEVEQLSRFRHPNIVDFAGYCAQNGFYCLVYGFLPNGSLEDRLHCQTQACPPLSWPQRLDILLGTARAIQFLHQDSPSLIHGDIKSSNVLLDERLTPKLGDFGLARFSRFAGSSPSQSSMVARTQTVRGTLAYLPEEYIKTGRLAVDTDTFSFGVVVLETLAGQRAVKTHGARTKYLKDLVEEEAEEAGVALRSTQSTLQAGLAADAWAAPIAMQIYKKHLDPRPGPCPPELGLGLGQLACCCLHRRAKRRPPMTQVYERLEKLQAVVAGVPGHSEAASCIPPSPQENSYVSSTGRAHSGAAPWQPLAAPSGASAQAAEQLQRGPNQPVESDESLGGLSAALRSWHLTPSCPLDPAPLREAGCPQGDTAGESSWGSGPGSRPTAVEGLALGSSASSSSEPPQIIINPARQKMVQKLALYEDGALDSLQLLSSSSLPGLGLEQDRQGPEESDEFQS
VEG-FR1, sequence (P17948 27-1338): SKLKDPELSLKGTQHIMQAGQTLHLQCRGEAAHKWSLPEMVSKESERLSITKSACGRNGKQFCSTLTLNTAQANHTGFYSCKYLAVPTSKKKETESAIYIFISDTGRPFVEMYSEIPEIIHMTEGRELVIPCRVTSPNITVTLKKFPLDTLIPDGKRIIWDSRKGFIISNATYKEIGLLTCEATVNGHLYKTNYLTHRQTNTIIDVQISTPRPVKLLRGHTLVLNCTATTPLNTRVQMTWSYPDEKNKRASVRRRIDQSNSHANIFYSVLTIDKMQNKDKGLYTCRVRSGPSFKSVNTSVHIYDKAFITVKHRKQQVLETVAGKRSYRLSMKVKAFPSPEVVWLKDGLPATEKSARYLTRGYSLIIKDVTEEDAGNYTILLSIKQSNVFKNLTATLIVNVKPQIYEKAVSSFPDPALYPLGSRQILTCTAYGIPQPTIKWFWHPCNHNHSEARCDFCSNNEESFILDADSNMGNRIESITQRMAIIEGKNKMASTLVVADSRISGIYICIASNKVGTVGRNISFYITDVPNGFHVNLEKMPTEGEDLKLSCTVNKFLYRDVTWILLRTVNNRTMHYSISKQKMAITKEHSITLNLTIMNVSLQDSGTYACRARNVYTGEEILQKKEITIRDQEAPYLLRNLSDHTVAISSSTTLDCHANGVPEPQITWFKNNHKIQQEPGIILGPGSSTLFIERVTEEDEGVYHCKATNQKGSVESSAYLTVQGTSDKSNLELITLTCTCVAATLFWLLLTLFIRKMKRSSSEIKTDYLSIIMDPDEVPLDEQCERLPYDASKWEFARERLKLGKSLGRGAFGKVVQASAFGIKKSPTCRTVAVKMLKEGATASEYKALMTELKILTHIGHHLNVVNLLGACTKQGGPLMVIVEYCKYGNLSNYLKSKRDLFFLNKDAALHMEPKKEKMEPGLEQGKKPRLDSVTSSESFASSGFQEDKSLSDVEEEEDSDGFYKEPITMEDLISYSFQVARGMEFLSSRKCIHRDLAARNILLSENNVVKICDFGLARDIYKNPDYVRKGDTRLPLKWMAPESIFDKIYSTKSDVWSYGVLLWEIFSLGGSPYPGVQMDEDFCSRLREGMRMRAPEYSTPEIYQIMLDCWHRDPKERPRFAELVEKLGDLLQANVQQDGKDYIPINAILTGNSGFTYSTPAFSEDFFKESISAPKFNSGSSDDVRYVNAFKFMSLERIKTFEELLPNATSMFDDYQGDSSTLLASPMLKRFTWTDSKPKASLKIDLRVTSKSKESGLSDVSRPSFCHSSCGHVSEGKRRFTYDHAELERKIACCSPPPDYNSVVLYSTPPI
PAK5, sequence (Q9P286 whole entry): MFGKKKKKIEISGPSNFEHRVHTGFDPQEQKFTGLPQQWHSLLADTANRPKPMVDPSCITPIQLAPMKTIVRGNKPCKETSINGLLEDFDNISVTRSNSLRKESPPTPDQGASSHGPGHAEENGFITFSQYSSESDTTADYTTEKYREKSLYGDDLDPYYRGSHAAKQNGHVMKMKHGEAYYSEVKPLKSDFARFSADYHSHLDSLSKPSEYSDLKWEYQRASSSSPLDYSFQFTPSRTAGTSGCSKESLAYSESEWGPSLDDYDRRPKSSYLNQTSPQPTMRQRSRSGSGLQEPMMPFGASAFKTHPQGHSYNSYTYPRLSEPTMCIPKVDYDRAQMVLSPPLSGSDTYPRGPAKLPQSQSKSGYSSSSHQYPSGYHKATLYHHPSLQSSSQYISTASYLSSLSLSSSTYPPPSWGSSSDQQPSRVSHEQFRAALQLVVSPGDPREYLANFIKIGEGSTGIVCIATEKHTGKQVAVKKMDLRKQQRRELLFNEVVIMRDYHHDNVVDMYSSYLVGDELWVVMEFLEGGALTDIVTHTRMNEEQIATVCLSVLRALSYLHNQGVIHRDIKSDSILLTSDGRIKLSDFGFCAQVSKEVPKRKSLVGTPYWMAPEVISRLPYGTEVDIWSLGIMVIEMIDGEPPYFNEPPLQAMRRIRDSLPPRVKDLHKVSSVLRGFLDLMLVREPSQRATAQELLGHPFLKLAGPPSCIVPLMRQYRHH
Aurora B, sequence (Q96GD4 whole entry): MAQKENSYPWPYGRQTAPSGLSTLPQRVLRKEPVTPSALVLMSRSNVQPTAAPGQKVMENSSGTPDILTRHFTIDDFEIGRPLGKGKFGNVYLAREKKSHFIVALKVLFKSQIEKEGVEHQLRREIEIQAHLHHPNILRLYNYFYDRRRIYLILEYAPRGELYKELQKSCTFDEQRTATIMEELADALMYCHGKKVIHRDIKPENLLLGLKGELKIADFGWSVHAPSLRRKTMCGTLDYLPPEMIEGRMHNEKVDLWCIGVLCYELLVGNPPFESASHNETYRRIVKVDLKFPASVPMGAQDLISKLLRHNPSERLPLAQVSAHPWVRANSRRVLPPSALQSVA
CHK2, sequence (O96017 whole entry): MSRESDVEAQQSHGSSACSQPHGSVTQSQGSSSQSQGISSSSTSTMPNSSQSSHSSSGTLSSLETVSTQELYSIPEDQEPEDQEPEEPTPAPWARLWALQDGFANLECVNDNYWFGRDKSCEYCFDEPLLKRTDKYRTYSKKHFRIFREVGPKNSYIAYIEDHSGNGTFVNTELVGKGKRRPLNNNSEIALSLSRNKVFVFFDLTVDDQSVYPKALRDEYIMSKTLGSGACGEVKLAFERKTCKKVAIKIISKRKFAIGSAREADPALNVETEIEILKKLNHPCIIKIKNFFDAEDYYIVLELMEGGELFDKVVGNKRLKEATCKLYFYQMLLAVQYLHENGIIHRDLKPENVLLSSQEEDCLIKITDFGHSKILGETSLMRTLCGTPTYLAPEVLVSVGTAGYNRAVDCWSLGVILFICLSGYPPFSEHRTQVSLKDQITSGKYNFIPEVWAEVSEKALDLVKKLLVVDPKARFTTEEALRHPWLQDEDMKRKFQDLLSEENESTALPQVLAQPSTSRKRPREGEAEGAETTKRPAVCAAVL
MARK1, sequence (Q9P0L2 whole entry): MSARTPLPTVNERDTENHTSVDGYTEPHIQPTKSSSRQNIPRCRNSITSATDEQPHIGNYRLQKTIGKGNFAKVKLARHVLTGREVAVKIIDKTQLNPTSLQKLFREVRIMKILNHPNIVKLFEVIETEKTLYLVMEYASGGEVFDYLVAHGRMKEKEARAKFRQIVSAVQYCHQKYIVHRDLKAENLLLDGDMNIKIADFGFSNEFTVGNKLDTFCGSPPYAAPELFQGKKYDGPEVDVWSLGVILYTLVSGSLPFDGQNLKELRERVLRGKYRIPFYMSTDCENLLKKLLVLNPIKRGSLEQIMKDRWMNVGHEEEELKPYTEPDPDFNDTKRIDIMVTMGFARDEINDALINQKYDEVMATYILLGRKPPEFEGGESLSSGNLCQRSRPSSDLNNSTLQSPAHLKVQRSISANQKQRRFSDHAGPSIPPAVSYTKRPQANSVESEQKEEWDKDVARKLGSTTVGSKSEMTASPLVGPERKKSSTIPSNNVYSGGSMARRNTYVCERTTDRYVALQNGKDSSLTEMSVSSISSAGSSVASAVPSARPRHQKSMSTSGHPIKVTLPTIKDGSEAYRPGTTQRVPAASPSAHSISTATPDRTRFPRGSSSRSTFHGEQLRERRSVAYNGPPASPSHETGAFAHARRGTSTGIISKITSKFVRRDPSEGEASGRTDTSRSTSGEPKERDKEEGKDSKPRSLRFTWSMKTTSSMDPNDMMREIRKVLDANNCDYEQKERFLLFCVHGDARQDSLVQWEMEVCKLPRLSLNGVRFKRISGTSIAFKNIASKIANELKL

Take `C=CS(=O)(=O)c1ccc(Nc2nc(OCC3CCCCC3)c3nc[nH]c3n2)cc1` [NU6300, 6-(cyclohexylmethoxy)-N-(4-(vinylsulfonyl)phenyl)-9H-purin-2-amine]: the remaining activity at 0.5 µM was determined as 51% at VEG-FR1 (setting [1]); 43% on VEG-FR1 (setting [2]); 38% on MARK1 (setting [1]); 37% on MARK1 (setting [2]); 87% on Aurora B (setting [1]); 43% on Aurora B (setting [2]). Further, the remaining activity at 0.5 µM on IRAK1 (setting [1]) was determined as 38%; at IRAK1 (setting [2]), 64%; on NUAK1 (setting [1]) it was 18%; on NUAK1 (setting [2]), 12%; at CHK2 (setting [1]) it was 120%; on CHK2 (setting [2]) it was 55%. In addition, the remaining activity at 0.5 µM was 53% on PAK5 (setting [1]), 76% at PAK5 (setting [2]), 6% at Aurora A (setting [1]) and 26% on Aurora A (setting [2]). Further, the “additional loss of activity after pre-incubation” value on Aurora A (4-hr pre-incubation vs usual format, 0.5 µM) is listed as > 50%.

The term remaining activity denotes the signal under treatment as a percentage of the control signal.
